From US20210045385A1, “PYRIDAZINONE-SUBSTITUTED KETOXIMES AS HERBICIDES” (FMC Corporation, priority 2018, published 2021)

What was measured:
Assay type in all cases: in vivo
[1] = test system: pigweed (Amaranthus retroflexus); test: Test C postemergence, visual plant response rating
Summary of the method: (§1)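 Seeds sown in a loam–sand blend got a directed preemergence soil spray; postemergence plants (2–10 cm, one- to two-leaf stage) were sprayed with compound in a non-phytotoxic solvent plus surfactant. Injury was scored visually against untreated controls after about 10 d in a greenhouse on a 0–100 scale (100 = complete control).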

[2] = test system: galium (catchweed bedstraw, Galium aparine); test: Test C postemergence, visual plant response rating
Summary of the method: as §1

[3] = test system: Italian ryegrass (Lolium mutiflorum); test: Test C postemergence, visual plant response rating
Summary of the method: as §1

[4] = test system: ragweed (common ragweed, Ambrosia artemisiifolia); test: Test C postemergence, visual plant response rating
Summary of the method: as §1

[5] = test system: blackgrass (Alopecurus myosuroides); test: Test C postemergence, visual plant response rating
Summary of the method: as §1

[6] = test system: foxtail, giant (giant foxtail, Setaria faberi); test: Test C postemergence, visual plant response rating
Summary of the method: as §1

[7] = test system: barnyardgrass (Echinochloa crus-galli); test: Test C postemergence, visual plant response rating
Summary of the method: as §1

corn (Zea mays) = test: Test C postemergence, visual plant response rating
Summary of the method: as §1

[8] = test system: wheat (Triticum aestivum); test: Test C postemergence, visual plant response rating
Summary of the method: as §1

kochia (Bassia scoparia) [9] = test: Test C postemergence, visual plant response rating
Summary of the method: as §1

[10] = test system: sedge umbrella (small-flower umbrella sedge, Cyperus difformis); test: Test D flooded paddy test, visual plant response rating; settings: 250 g ai/ha, scale 0 to 100 (0 no effect, 100 complete control), 13 to 15 d
Summary of the method: (§2)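 Greenhouse paddy assay scored on a 0–100 visual scale after 13 to 15 d, where 100 means complete control and a dash marks no result; dosing was into 3 cm floodwater over 2-leaf plants.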

[11] = test system: duck salad (Heteranthera limosa); test: as above; settings: 250 g ai/ha, scale 0 to 100 (0 no effect, 100 complete control), 13 to 15 d
Summary of the method: as §2

[12] = test system: barnyardgrass (Echinochloa crus-galli); test: as above; settings: 250 g ai/ha, scale 0 to 100 (0 no effect, 100 complete control), 13 to 15 d
Summary of the method: as §2

rice (Oryza sativa) = test: as above; settings: 250 g ai/ha, scale 0 to 100 (0 no effect, 100 complete control), 13 to 15 d
Summary of the method: as §2

[13] = test system: pigweed (Amaranthus retroflexus); test: Test C preemergence, visual plant response rating; settings: Test C, 0 is no effect, 100 is complete control
Summary of the method: as §1

[14] = test system: Italian ryegrass (Lolium mutiflorum); test: Test C preemergence, visual plant response rating; settings: Test C, 0 is no effect, 100 is complete control
Summary of the method: as §1

[15] = test system: ragweed (common ragweed, Ambrosia artemisiifolia); test: Test C preemergence, visual plant response rating; settings: Test C, 0 is no effect, 100 is complete control
Summary of the method: as §1

[16] = test system: foxtail, giant (giant foxtail, Setaria faberi); test: Test C preemergence, visual plant response rating; settings: Test C, 0 is no effect, 100 is complete control
Summary of the method: as §1

[17] = test system: barnyardgrass (Echinochloa crus-galli); test: Test C preemergence, visual plant response rating; settings: Test C, 0 is no effect, 100 is complete control
Summary of the method: as §1

kochia (Bassia scoparia) [18] = test: Test C preemergence, visual plant response rating; settings: Test C, 0 is no effect, 100 is complete control
Summary of the method: as §1

[19] = Test C, postemergence, 125 g ai/ha

SMILES: CC(C)O/N=C(\c1c(O)c(Cl)nn(C)c1=O)c1ccc(F)c2ccccc12 [Compound 210]
- Pigweed plant response rating (0 to 100 scale) ([1]; Postemergence, 31 g ai/ha): 40
- Pigweed plant response rating (0 to 100 scale) [1, 19]: 100
- Galium plant response rating (0 to 100 scale) ([2]; Postemergence, 31 g ai/ha): 90
- Galium plant response rating (0 to 100 scale) [2, 19]: 100
- Ryegrass, Italian plant response rating (0 to 100 scale) ([3]; Postemergence, 31 g ai/ha): 0
- Ryegrass, Italian plant response rating (0 to 100 scale) [3, 19]: 20
- Ragweed plant response rating (0 to 100 scale) ([4]; Postemergence, 31 g ai/ha): 90
- Ragweed plant response rating (0 to 100 scale) [4, 19]: 90
- Blackgrass plant response rating (0 to 100 scale) ([5]; Postemergence, 31 g ai/ha): 0
- Blackgrass plant response rating (0 to 100 scale) [5, 19]: 30
- Foxtail, Giant plant response rating (0 to 100 scale) ([6]; Postemergence, 31 g ai/ha): 70
- Foxtail, Giant plant response rating (0 to 100 scale) [6, 19]: 90
- Barnyardgrass plant response rating (0 to 100 scale) ([7]; Postemergence, 31 g ai/ha): 40
- Barnyardgrass plant response rating (0 to 100 scale) [7, 19]: 70
- Corn plant response rating (0 to 100 scale) (corn (Zea mays); Postemergence, 31 g ai/ha): 20
- Corn plant response rating (0 to 100 scale) (corn (Zea mays); [19]): 20
- Wheat plant response rating (0 to 100 scale) ([8]; Postemergence, 31 g ai/ha): 0
- Wheat plant response rating (0 to 100 scale) [8, 19]: 0
- Kochia plant response rating (0 to 100 scale) (kochia (Bassia scoparia) [9]; Postemergence, 31 g ai/ha): 30
- Kochia plant response rating (0 to 100 scale) (kochia (Bassia scoparia) [9]; [19]): 40
- Plant response rating, Sedge, Umbrella (Flood) [10]: 90
- Plant response rating, Ducksalad (Flood) [11]: 45
- Plant response rating, Barnyardgrass (Flood) [12]: 0
- Plant response rating, Rice (Flood) (rice (Oryza sativa)): 0
- Pigweed plant response rating (0 to 100 scale) ([13]; 31 g ai/ha): 30
- Pigweed plant response rating (0 to 100 scale) ([13]; 125 g ai/ha): 100
- Ryegrass, Italian plant response rating (0 to 100 scale) ([14]; 31 g ai/ha): 0
- Ryegrass, Italian plant response rating (0 to 100 scale) ([14]; 125 g ai/ha): 20
- Ragweed plant response rating (0 to 100 scale) ([15]; 31 g ai/ha): 0
- Ragweed plant response rating (0 to 100 scale) ([15]; 125 g ai/ha): 90
- Foxtail, Giant plant response rating (0 to 100 scale) ([16]; 31 g ai/ha): 90
- Foxtail, Giant plant response rating (0 to 100 scale) ([16]; 125 g ai/ha): 100
- Barnyardgrass plant response rating (0 to 100 scale) ([17]; 31 g ai/ha): 30
- Barnyardgrass plant response rating (0 to 100 scale) ([17]; 125 g ai/ha): 80
- Kochia plant response rating (0 to 100 scale) (kochia (Bassia scoparia) [18]; 31 g ai/ha): 0
- Kochia plant response rating (0 to 100 scale) (kochia (Bassia scoparia) [18]; 125 g ai/ha): 0
